In experiment [1] the target is T1, West Nile Virus (WNV) NS2B-NS3 protease (West Nile virus, UniProt Q9Q6P4).
T1 construct: NS2B1423-1470); purchased R&D 2907-SE-020
The experiment in a line: WNV protease inhibition assay. The class given is biochemical. The following applies: Table 4; letter codes for IC50. From the text: WNV protease inhibition assay

For the next experiment, the system named is ZIKV replicon. The experiment can be described thus: ZIKV replication inhibition assay (NanoLuc replicon in Vero cells). The following applies: 72 h. (Replicon systems follow genome replication, usually without infectious particles.)
The mark [2] stands for this setting: Zika virus, Vero, read-out: ZIKA Cell_Nanoluc, Vero cells with stable ZIKV replicon, 72 h, Nano-Glo readout.
[3] abbreviates: Zika virus, Vero, read-out: ZIKA Cell_Nanoluc.

The values below come from EP4563146A1 (IRBM S.P.A., priority 2023, dated 2025).

For orientation: IC50 means the midpoint of a concentration-inhibition curve. High values mean lower potency, low ones higher potency.

Like-named read-outs stand apart in the source and are kept apart here.

T1 sequence (Q9Q6P4 1423-1470): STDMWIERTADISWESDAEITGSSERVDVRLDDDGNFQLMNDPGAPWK
T1 sequence (Q9Q6P4 1506-1689): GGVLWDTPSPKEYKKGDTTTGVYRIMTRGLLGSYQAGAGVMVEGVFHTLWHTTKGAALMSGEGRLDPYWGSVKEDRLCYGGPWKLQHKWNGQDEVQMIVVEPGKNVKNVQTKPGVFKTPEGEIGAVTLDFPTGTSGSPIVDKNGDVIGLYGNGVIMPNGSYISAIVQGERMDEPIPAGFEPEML

Regarding `O=C([N-]c1c[n+](CC23CCC(c4cncnc4)(CC2)C3)no1)Nc1ccnc(C(F)(F)F)c1` [Example 185, (3-((4-(Pyrimidin-5-yl)bicyclo[2.2.1]heptan-1-yl)methyl)-1,2,3-oxadiazol-3-ium-5-yl)((2-(trifluoromethyl)pyridin-4-yl)carbamoyl)amide], in experiment [1], the half-maximal inhibitory concentration (IC50) was 100 to 1000 nM. In the experiment with ZIKV replicon (setting [2]), the EC50 fell in the range of 1000 to 20000 nM.
`CN(C)C[C@H]1CC[C@H]([n+]2cc([N-]C(=O)Nc3cc(NC(=O)Cc4cn(C)c5ccccc45)cc(C(F)(F)F)c3)on2)CC1` [Example 161, (3-((1R,4R)-4-((dimethylamino)methyl)-cyclohexyl)-1,2,3-oxadiazol-3-ium-5-yl)((3-(2-(1-methyl-1H-indol-3-yl)acetamido)-5-(trifluoromethyl)phenyl)carbamoyl)amide]: in experiment [1], the IC50 fell in the range of 100 to 1000 nM. Moreover, the EC50 in the experiment with ZIKV replicon (setting [3]) was 1000 to 20000 nM.
As for `Cc1ccccc1CC(=O)Nc1cc(NC(=O)[N-]c2c[n+](C[C@H]3CCCC[C@H]3O)no2)cc(C(F)(F)F)c1` [Example 217, (3-(((1R,2R)-2Hydroxycyclohexyl)methyl)-1,2,3-oxadiazol-3-ium-5-yl)((3-(2-(o-tolyl)acetamido)-5-(trifluoromethyl)phenyl)-carbamoyl)amide], the IC50 in experiment [1] is under 100 nM. Moreover, in the experiment on ZIKV replicon (setting [2]), the EC50 is under 100 nM.
As to `CN(C)C[C@H]1CC[C@H]([n+]2cc([N-]C(=O)Nc3cc(NC(=O)CS(=O)(=O)c4ccccc4)cc(C(F)(F)F)c3)on2)CC1` [Example 151, (3-((1R,4R)-4-((Dimethylamino)methyl)-cyclohexyl)-1,2,3-oxadiazol-3-ium-5-yl)((3-(2-(phenylsulfonyl)acetamido)-5-(trifluoromethyl)phenyl)carbamoyl)amide], the IC50 in experiment [1] is 100 to 1000 nM. In addition, in the experiment with ZIKV replicon (read-out: ZIKA Cell_Nanoluc, Vero cells with stable ZIKV replicon, Nano-Glo readout), the EC50 lay within 1000 to 20000 nM.
`CN(C)C[C@H]1CC[C@H]([n+]2cc([N-]C(=O)Nc3cc(NC(=O)Cc4cccc(CC(N)=O)c4)cc(C(F)(F)F)c3)on2)CC1` [Example 162, ((3-(2-(3-(2-Amino-2-oxoethyl)phenyl)-acetamido)-5-(trifluoromethyl)phenyl)-carbamoyl)(3-((1R,4R)-4-((dimethylamino)-methyl)cyclohexyl)-1,2,3-oxadiazol-3-ium-5-yl)amide]: the IC50 in experiment [1] is 100 to 1000 nM. In addition, in the experiment on ZIKV replicon (setting [3]), the EC50 lay within 1000 to 20000 nM.
`CN(C)C[C@H]1CC[C@H]([n+]2cc([N-]C(=O)Nc3cc(NC(=O)C4CCCc5ccccc54)cc(C(F)(F)F)c3)on2)CC1` (stereo partly drawn) [Example 177, (3-((1R,4R)-4-((Dimethylamino)methyl)-cyclohexyl)-1,2,3-oxadiazol-3-ium-5-yl)((3-(1,2,3,4-tetrahydronaphthalene-1-carboxamido)-5-(trifluoromethyl)phenyl)carbamoyl)amide] registered an IC50 in experiment [1] of 100 to 1000 nM. In the experiment on ZIKV replicon (setting [3]), the EC50 is 1000 to 20000 nM.
`Cc1ccnc(C)c1-c1ccc(C[n+]2cc([N-]C(=O)Nc3ccnc(C(F)(F)F)c3)on2)cc1` [Example 263, (3-(4-(2,4-Dimethylpyridin-3-yl)benzyl)-1,2,3-oxadiazol-3-ium-5-yl)((2-(trifluoromethyl)pyridin-4-yl)carbamoyl)amide] yielded a half-maximal inhibitory concentration (IC50) in experiment [1] of under 100 nM. Besides, the EC50 in the experiment with ZIKV replicon (setting [2]) is under 100 nM.
On to `Cc1ccccc1CC(=O)Nc1cc(NC(=O)[N-]c2c[n+]([C@H]3CC[C@H](CO)CC3)no2)cc(C(F)(F)F)c1` [Example 228, (3-((1R,4R)-4-(Hydroxymethyl)cyclohexyl)-1,2,3-oxadiazol-3-ium-5-yl)((3-(2-(o-tolyl)acetamido)-5-(trifluoromethyl)phenyl)carbamoyl)amide], for which, in experiment [1], the 50% inhibitory concentration (IC50) fell in the range of 100 to 1000 nM. The EC50 in the experiment with ZIKV replicon (setting [3]) lay in the range of 100 to 1000 nM.
For the molecule `CC(C(=O)Nc1cc(NC(=O)[N-]c2c[n+]([C@H]3CC[C@H](CN(C)C)CC3)no2)cc(C(F)(F)F)c1)c1ccccc1Cl` (stereo partly drawn) [Example 205, ((3-(2-(2-Chlorophenyl)propanamido)-5-(trifluoromethyl)phenyl)carbamoyl)(3-((1R,4R)-4-((dimethylamino)methyl)cyclohexyl)-1,2,3-oxadiazol-3-ium-5-yl)amide], the IC50 in experiment [1] was 100 to 1000 nM. For the same molecule, the EC50 in the experiment with ZIKV replicon (setting [3]) lay within 1000 to 20000 nM.
In turn, `CN(C)C[C@H]1CC[C@H]([n+]2cc([N-]C(=O)Nc3cc(NC(=O)C(F)c4ccccc4F)cc(C(F)(F)F)c3)on2)CC1` (stereo partly drawn) [Example 194, (3-((1R,4R)-4-((Dimethylamino)methyl)-cyclohexyl)-1,2,3-oxadiazol-3-ium-5-yl)((3-(2-fluoro-2-(2-fluorophenyl)acetamido)-5-(trifluoromethyl)phenyl)carbamoyl)amide] gave an IC50 in experiment [1] of 100 to 1000 nM. In addition, the EC50 in the experiment with ZIKV replicon (setting [3]) is under 100 nM.
In experiment [1], `Cc1ccccc1CC(=O)Nc1cc(NC(=O)[N-]c2c[n+]([C@@H]3CCC[C@H](CN(C)C)C3)no2)cc(C(F)(F)F)c1` (stereo in doubt) [Example 247, rac-(3-((1R,3S)-3-((Dimethylamino)methyl)-cyclohexyl)-1,2,3-oxadiazol-3-ium-5-yl)((3-(2-(o-tolyl)acetamido)-5-(trifluoromethyl)phenyl)-carbamoyl)amide] gave an IC50 of 100 to 1000 nM. In the experiment on ZIKV replicon (setting [2]), the EC50 was 1000 to 20000 nM.
As to `CN(C)[C@@H]1CCC[C@@H]([n+]2cc([N-]C(=O)Nc3cc(NC(=O)Cc4ccccc4)cc(C(F)(F)F)c3)on2)C1` [Example 173, (3-((1R,3R)-3-(Dimethylamino)cyclohexyl)-1,2,3-oxadiazol-3-ium-5-yl)((3-(2-phenylacetamido)-5-(trifluoromethyl)phenyl)-carbamoyl)amide], the IC50 in experiment [1] is under 100 nM. Also, the EC50 in the experiment on ZIKV replicon (setting [2]) lay in the range of 100 to 1000 nM.
For the molecule `O=C([N-]c1c[n+](C[C@H]2CC[C@H](c3cncnc3)CC2)no1)Nc1cccc(C(F)(F)F)c1` [Example 186, (3-(((1R,4R)-4-(Pyrimidin-5-yl)cyclohexyl)methyl)-1,2,3-oxadiazol-3-ium-5-yl)((3-(trifluoromethyl)phenyl)carbamoyl)amide], the half-maximal inhibitory concentration (IC50) in experiment [1] fell in the range of 100 to 1000 nM. Also, the EC50 with ZIKV replicon (setting [3]) was in the range of 1000 to 20000 nM.
In the case of `CN1c2ccccc2CCC1C[n+]1cc([N-]C(=O)Nc2ccnc(C(F)(F)F)c2)on1` (racemic) [Example 178, rac-(3-((1-Methyl-1,2,3,4-tetrahydroquinolin-2-yl)methyl)-1,2,3-oxadiazol-3-ium-5-yl)((2-(trifluoromethyl)pyridin-4-yl)carbamoyl)amide], the IC50 in experiment [1] fell in the range of 100 to 1000 nM. Moreover, the EC50 in the experiment with ZIKV replicon (setting [2]) was 100 to 1000 nM.
`CN(C)C[C@H]1CC[C@H]([n+]2cc([N-]C(=O)Nc3cc(NC(=O)[C@@H](F)c4ccccc4F)cc(C(F)(F)F)c3)on2)CC1` (single isomer, unassigned) [Example 243]: in experiment [1], the concentration for half-maximal inhibition (IC50) is under 100 nM. Further, in the experiment with ZIKV replicon (setting [3]), the EC50 lay in the range of 100 to 1000 nM.
In turn, `CN(C)C[C@H]1CC[C@H]([n+]2cc([N-]C(=O)Nc3cc(NC(=O)Cc4cccc(F)c4F)cc(C(F)(F)F)c3)on2)CC1` [Example 169, ((3-(2-(2,3-Difluorophenyl)acetamido)-5-(trifluoromethyl)phenyl)carbamoyl)(3-((1R,4R)-4-((dimethylamino)methyl)cyclohexyl)-1,2,3-oxadiazol-3-ium-5-yl)amide] returned an IC50 in experiment [1] of under 100 nM. Besides, the EC50 in the experiment with ZIKV replicon (setting [3]) was in the range of 100 to 1000 nM.
Molecule `Cc1ccccc1CC(=O)Nc1cc(NC(=O)[N-]c2c[n+]([C@@H]3CCC[C@H](C(N)=O)C3)no2)cc(C(F)(F)F)c1` [Example 255, (3-((1R,3S)-3-Carbamoylcyclohexyl)-1,2,3-oxadiazol-3-ium-5-yl)((3-(2-(o-tolyl)acetamido)-5-(trifluoromethyl)phenyl)carbamoyl)amide] showed an IC50 in experiment [1] of 100 to 1000 nM. Further, the EC50 in the experiment with ZIKV replicon (setting [2]) was 1000 to 20000 nM.
`Cc1ncnc(C)c1-c1ccc(C[n+]2cc([N-]C(=O)Nc3ccc(C#N)c(C(F)(F)F)c3)on2)cc1` [Example 207, ((4-Cyano-3-(trifluoromethyl)phenyl)-carbamoyl)(3-(4-(4,6-dimethylpyrimidin-5-yl)benzyl)-1,2,3-oxadiazol-3-ium-5-yl)amide] showed an IC50 in experiment [1] of 100 to 1000 nM. Further, the EC50 in the experiment with ZIKV replicon (setting [2]) was 100 to 1000 nM.
Regarding `C[C@H](C(=O)Nc1cc(NC(=O)[N-]c2c[n+]([C@H]3CC[C@H](CN(C)C)CC3)no2)cc(C(F)(F)F)c1)c1ccccc1` [Example 170, (3-((1R,4S)-4-((Dimethylamino)methyl)-cyclohexyl)-1,2,3-oxadiazol-3-ium-5-yl)((3-((S)-2-phenylpropanamido)-5-(trifluoromethyl)-phenyl)carbamoyl)amide], the concentration for half-maximal inhibition (IC50) in experiment [1] was under 100 nM. Further, the EC50 in the experiment on ZIKV replicon (setting [3]) lay within 100 to 1000 nM.
On to `Cc1ncnc(C)c1-c1ccc(C[n+]2cc([N-]C(=O)N[C@H]3CC[C@H](C(F)(F)F)C3)on2)cc1` [Example 233, (3-(4-(4,6-Dimethylpyrimidin-5-yl)benzyl)-1,2,3-oxadiazol-3-ium-5-yl)(((1S,3S)-3-(trifluoromethyl)cyclopentyl)carbamoyl)amide], for which the IC50 in experiment [1] lay in the range of 100 to 1000 nM. Besides, the EC50 with ZIKV replicon (setting [2]) fell in the range of 100 to 1000 nM.
On to `Cc1noc(C)c1-c1ccc([C@H](CN)[n+]2cc([N-]C(=O)Nc3cc(NC(=O)Cc4ccccc4)cc(C(F)(F)F)c3)on2)cc1` [Example 23, (R)-(3-(2-Amino-1-(4-(3,5-dimethylisoxazol-4-yl)phenyl)ethyl)-1,2,3-oxadiazol-3-ium-5-yl)((3-(2-phenylacetamido)-5-(trifluoromethyl)phenyl)-carbamoyl)amide], for which the EC50 in the experiment with ZIKV replicon (setting [2]) is 1000 to 20000 nM.
Still for that read-out and setting: the figure for `O=C(Cc1ccccc1)Nc1cc(NC(=O)[N-]c2c[n+](CC3CNCCCO3)no2)cc(C(F)(F)F)c1` (centres unmarked) [Example 115, (3-((1,4-oxazepan-2-yl)methyl)-1,2,3-oxadiazol-3-ium-5-yl)((3-(2-phenylacetamido)-5-(trifluoromethyl)phenyl)carbamoyl)amide] is 1000 to 20000 nM.
On to `O=C([N-]c1c[n+](Cc2ccccn2)no1)Nc1cc(NC(=O)C2CC2c2ccccc2)cc(C(F)(F)F)c1` (centres unmarked) [Example 50], for which, in the experiment on ZIKV replicon (setting [3]), the EC50 lay within 100 to 1000 nM.
Turning to `O=C(Cc1ccccc1)Nc1cc(NC(=O)[N-]c2c[n+](CC3CCCNC3)no2)cc(C(F)(F)F)c1` (centres unmarked) [Example 110, ((3-(2-Phenylacetamido)-5-(trifluoromethyl)phenyl)carbamoyl)(3-(piperidin-3-ylmethyl)-1,2,3-oxadiazol-3-ium-5-yl)amide], the EC50 with ZIKV replicon (setting [2]) was over 20000 nM.
